# Patent US10660318B2, “Non-mammalian RAS transgenic animal model” (Tosk, Inc., priority 2013, dated 2020)
# Test system: mutated kRAS/kRAS x MS1096 fly (human kRAS G12V expressed in the wing)
# Assay: Screening for drugs that reverse the wing phenotype of the mutated kRAS/kRAS x MS1096 fly
# Type: in vivo, Drosophila
# Conditions: for rescue from the crumpled/kringled wing phenotype: 10 μM test article in fly food, embryos to adults, 25° C., 14 days, FIG. 8
# Description: Male mutated kRAS/kRAS flies were bred overnight with female MS1096/GAL4 flies in a fly condo^2 with a grape agar plate floor. The resulting embryos were gently dislodged from the grape agar plate using a squirt bottle containing 0.7% NaCl, 0.03% Triton X-100 In distilled water. The embryos were counted and then dissolved in a solution containing 14.4% sucrose, 0.7% NaCl and 0.05% Triton to give a concentration of 15 embryos/10 μL of solution. ^2 Sullivan W, Ashburner M, Hawley, S R, Drosophila Protocols 2000, Cold Spring Harbor Laboratory Press, pp 541-551.
# The test article, 1-benzyl-2-phenyl-1H-benzo[d]imidazole which is a deltarasin analog with activity againsy RAS signaling,^1 was dissolved in DMSO to give a concentration of 10 mM. The deltarasin analog inhibitor was synthesized at the Tosk facility. Four μL of this solution, 100 μL of the embryo solution (150 embryos), ½ teaspoon blue fly food (North Carolina, catalogue number 173216) and 4 ml of water were combined in a vial (VWR, catalogue number 89092-720) and capped (VWR, catalogue number 89168-886). Using the recipe provided above, the final concentration of test article in the mixture was 10 μM.
# The vials were placed in a 25° C. incubator for 14 days after which they. were examined for the percentage of flies with crumpled/kringled wings. […] The goal for screening chemicals for anti-kRAS activity is to achieve in the kRAS mutant fly the rescue from the crumpled/kringled wing phenotype achieved with the deltarasin analog.
# [1] = flies rescued by treatment with a test article, compared with control and kRAS mutant flies
smiles,measurement,setting,value
"c1ccc(Cn2c(-c3ccccc3)nc3ccccc32)cc1 [test article, 1-benzyl-2-phenyl-1H-benzo[d]imidazole]",rescue from the crumpled/kringled wing phenotype,,significantly less crumpled/kringled although still non-functional
same,rescue from the crumpled/kringled wing phenotype,listed as deltarasin analog,rescued
same,typical appearance of wings: vein-free region (Rescued),compared with the same regions in kRAS mutant flies,Vein-free region is considerably
same,ability to take flight (Rescued),[1],Unable to take flight
same,typical appearance of wings: position relative to fly body in idle state (Rescued),[1],Wings tend to be parallel to the fly
same,typical appearance of wings: size and shape (Rescued),[1],"Medium, semi-flat and less crinkled"
same,typical appearance of wings: transparency (Rescued),[1],Slightly translucent wings
same,typical appearance of wings: wing veins (Rescued),[1],Slightly aberrant wing “veins.”
